Laboratory results: patent publication US20040254213A1, “Use of bicyclo compounds for treating alzheimer's disease” (priority 2001, published 2004)

`CC(C)CN1CC2(Cc3ccccc3)CC(=O)CC(C(O)Cc3ccccc3)(C1)C2O` (racemic) [Compound 16, 5(RS)-methylphenyl-9(RS)-hydroxy-1(RS)-((1′-hydroxy)-2′-phenyl)-ethyl-3-(2″-methyl)propyl-3-azabicyclo[3.3.1] nonan-7-one] showed a melting point of 138 to 141 °C. `O=C1CC2(Cc3ccccc3)CN(Cc3ccccc3)CC([C@@H](O)Cc3ccccc3)(C1)C2O` (mixture of isomers) [Compound 18, 5(RS)-methylpheny-9(RS)-hydroxy-1(RS)-((1′-hydroxy)-2′-phenyl)-ethyl-3-benzyl-3-azabicyclo[3.3.1]nonan-7-one] showed a melting point of 145.5 to 147 °C. For `CC(C)CN1CC2(Cc3ccccc3)CC(=O)CC([C@@H](O)Cc3ccccc3N)(C1)C2O` (mixture of isomers) [Compound 20], the melting point was 164 to 165 °C.
